PubChem BioAssay AID1259407 (Chemical Carcinogenesis Research Information System (CCRIS), 2018)
Activity calls are given as the source filed them. The rule behind the calls is not given here.

Tested on: CCRIS mutagenicity, Ames/micronucleus/aberration tests
Assay: CCRIS mutagenicity studies
[1] = Test System: AMES SALMONELLA TYPHIMURIUM, Strain/Indicator: TA98, Metabolic Activation: NONE, Method: PREINCUBATION
[2] = Test System: AMES SALMONELLA TYPHIMURIUM, Strain/Indicator: TA100, Metabolic Activation: NONE, Method: PREINCUBATION
[3] = Test System: AMES SALMONELLA TYPHIMURIUM, Strain/Indicator: TA98, Metabolic Activation: NONE, Method: STANDARD PLATE
[4] = Test System: AMES SALMONELLA TYPHIMURIUM, Strain/Indicator: TA100, Metabolic Activation: NONE, Method: STANDARD PLATE

In the case of O=[N+]([O-])c1ccc2c(c1)Oc1cc([N+](=O)[O-])ccc1O2, the mutagenic call (Test System: AMES SALMONELLA TYPHIMURIUM, Strain/Indicator: TA98(1,8-DNP6), Metabolic Activation: NONE, Method: PREINCUBATION) is reported as “active; positive”, the mutagenic call (Test System: AMES SALMONELLA TYPHIMURIUM, Strain/Indicator: TA98(1,8-DNP6), Metabolic Activation: NONE, Method: SUSPENSION) is reported as “active; positive” and the mutagenic call (Test System: AMES SALMONELLA TYPHIMURIUM, Strain/Indicator: TA98(1,8-DNP6), Metabolic Activation: RAT, LIVER, S-9, PCB (5%), Method: PREINCUBATION) is reported as “active; positive”. For the same compound, the mutagenic call (Test System: AMES SALMONELLA TYPHIMURIUM, Strain/Indicator: TA98(NR), Metabolic Activation: NONE, Method: PREINCUBATION) was “inactive; negative”, the mutagenic call (Test System: AMES SALMONELLA TYPHIMURIUM, Strain/Indicator: TA98(NR), Metabolic Activation: NONE, Method: SUSPENSION) was “inactive; negative” and the mutagenic call (Test System: AMES SALMONELLA TYPHIMURIUM, Strain/Indicator: TA98(NR), Metabolic Activation: RAT, LIVER, S-9 (15%), Method: PREINCUBATION) was “active; positive”. For the same compound, the mutagenic call (Test System: AMES SALMONELLA TYPHIMURIUM, Strain/Indicator: TA98(NR), Metabolic Activation: RAT, LIVER, S-9, 3-METHYLCHOLANTHRENE (15%), Method: PREINCUBATION) was “active; positive”, the mutagenic call (Test System: AMES SALMONELLA TYPHIMURIUM, Strain/Indicator: TA98(NR), Metabolic Activation: RAT, LIVER, S-9, BETA-NAPHTHOFLAVONE (15%), Method: PREINCUBATION) was “active; positive” and the mutagenic call (Test System: AMES SALMONELLA TYPHIMURIUM, Strain/Indicator: TA98(NR), Metabolic Activation: RAT, LIVER, S-9, PCB (5 OR 15%), Method: PREINCUBATION) was “active; positive”. The mutagenic call (Test System: AMES SALMONELLA TYPHIMURIUM, Strain/Indicator: TA98(NR), Metabolic Activation: RAT, LIVER, S-9, PHENOBARBITAL (15%), Method: PREINCUBATION) was “active; positive”, the mutagenic call [1] was “active; positive” and the mutagenic call (Test System: AMES SALMONELLA TYPHIMURIUM, Strain/Indicator: TA98, Metabolic Activation: NONE, Method: SUSPENSION) was “active; positive”. For the same compound, the mutagenic call (Test System: AMES SALMONELLA TYPHIMURIUM, Strain/Indicator: TA98, Metabolic Activation: RAT, LIVER, S-9, PCB (5%), Method: PREINCUBATION) was “active; positive”, the mutagenic call (Test System: AMES SALMONELLA TYPHIMURIUM, Strain/Indicator: TA98, Metabolic Activation: RAT, LIVER, S-9, PCB, Method: SUSPENSION) was “active; positive” and the mutagenic call [2] was “inactive; negative”. For the same compound, the mutagenic call (Test System: AMES SALMONELLA TYPHIMURIUM, Strain/Indicator: TA100, Metabolic Activation: NONE, Method: SUSPENSION) was “inactive; negative”, the mutagenic call (Test System: AMES SALMONELLA TYPHIMURIUM, Strain/Indicator: TA100, Metabolic Activation: RAT, LIVER, S-9, PCB (5%), Method: PREINCUBATION) was “inactive; negative” and the mutagenic call (Test System: AMES SALMONELLA TYPHIMURIUM, Strain/Indicator: TA100, Metabolic Activation: RAT, LIVER, S-9, PCB, Method: SUSPENSION) was “active; positive”.
In the case of COc1cc(O)c2c(=O)c(O)c(-c3ccc(O)c(O)c3)oc2c1, the mutagenic call (Test System: AMES SALMONELLA TYPHIMURIUM, Strain/Indicator: TA97, Metabolic Activation: NONE, Method: STANDARD PLATE) is reported as “inactive; negative”, the mutagenic call (Test System: AMES SALMONELLA TYPHIMURIUM, Strain/Indicator: TA97, Metabolic Activation: RAT, LIVER, S-9, AROCLOR 1254, Method: STANDARD PLATE) is reported as “active; positive” and the mutagenic call [3] is reported as “inactive; negative”. The mutagenic call (Test System: AMES SALMONELLA TYPHIMURIUM, Strain/Indicator: TA98, Metabolic Activation: RAT, LIVER, S-9, AROCLOR 1254, Method: STANDARD PLATE) was “active; positive”, the mutagenic call [4] was “inactive; negative” and the mutagenic call (Test System: AMES SALMONELLA TYPHIMURIUM, Strain/Indicator: TA100, Metabolic Activation: RAT, LIVER, S-9, AROCLOR 1254, Method: STANDARD PLATE) was “inactive; negative”. The mutagenic call (Test System: AMES SALMONELLA TYPHIMURIUM, Strain/Indicator: TA102, Metabolic Activation: NONE, Method: STANDARD PLATE) was “inactive; negative”, the mutagenic call (Test System: AMES SALMONELLA TYPHIMURIUM, Strain/Indicator: TA102, Metabolic Activation: RAT, LIVER, S-9, AROCLOR 1254, Method: STANDARD PLATE) was “inactive; negative” and the mutagenic call (Test System: AMES SALMONELLA TYPHIMURIUM, Strain/Indicator: TA1535, Metabolic Activation: NONE, Method: STANDARD PLATE) was “inactive; negative”. For the same compound, the mutagenic call (Test System: AMES SALMONELLA TYPHIMURIUM, Strain/Indicator: TA1535, Metabolic Activation: RAT, LIVER, S-9, AROCLOR 1254, Method: STANDARD PLATE) was “inactive; negative”, the mutagenic call (Test System: AMES SALMONELLA TYPHIMURIUM, Strain/Indicator: TA1538, Metabolic Activation: NONE, Method: STANDARD PLATE) was “inactive; negative” and the mutagenic call (Test System: AMES SALMONELLA TYPHIMURIUM, Strain/Indicator: TA1538, Metabolic Activation: RAT, LIVER, S-9, AROCLOR 1254, Method: STANDARD PLATE) was “inactive; negative”.
With Nc1c(N=Nc2ccc([N+](=O)[O-])cc2)c(S(=O)(=O)O)cc2cc(S(=O)(=O)O)c(N=Nc3ccccc3)c(O)c12 the mutagenic call [3] was “active; positive”, the mutagenic call (Test System: AMES SALMONELLA TYPHIMURIUM, Strain/Indicator: TA98, Metabolic Activation: RAT, LIVER, S-9, PHENOBARBITAL, Method: STANDARD PLATE) was “active; positive” and the mutagenic call [4] was “inactive; negative”. The mutagenic call (Test System: AMES SALMONELLA TYPHIMURIUM, Strain/Indicator: TA100, Metabolic Activation: RAT, LIVER, S-9, PHENOBARBITAL, Method: STANDARD PLATE) was “active; positive”.
For CCC[CH2][Sn]([CH2]CCC)([CH2]CCC)[CH2]CCC, the mutagenic call (Test System: AMES SALMONELLA TYPHIMURIUM, Strain/Indicator: TA98, Metabolic Activation: NONE, Method: SUSPENSION/PLATE) was “inactive; negative” and the mutagenic call (Test System: AMES SALMONELLA TYPHIMURIUM, Strain/Indicator: TA100, Metabolic Activation: NONE, Method: SUSPENSION/PLATE) was “inactive; negative”.
ClCC(Br)CCl was tested, and the mutagenic call (Test System: AMES SALMONELLA TYPHIMURIUM, Strain/Indicator: TA100, Metabolic Activation: RAT, LIVER, MICROSOMES, PHENOBARBITAL, NADPH COFACTORS, Method: STANDARD PLATE) was “active; positive” and the mutagenic call (Test System: AMES SALMONELLA TYPHIMURIUM, Strain/Indicator: TA100, Metabolic Activation: RAT, LIVER, MICROSOMES, PHENOBARBITAL, Method: STANDARD PLATE) was “inactive; negative”.
For CC(=O)O[C@H]1[C@@H]2CC(C)(C)CC2=C(C=O)[C@]2(C=O)C[C@]12C, the mutagenic call [3] was “inactive; negative”, the mutagenic call [4] was “inactive; negative” and the mutagenic call (Test System: AMES SALMONELLA TYPHIMURIUM, Strain/Indicator: TA2637, Metabolic Activation: NONE, Method: STANDARD PLATE) was “inactive; negative”.
In the case of CCOP(=S)(OCC)Oc1ccc(S(C)=O)cc1 (centres undefined), the mutagenic call (End Point: In vivo micronucleus, Species: Mouse, Strain/Sex: NMRI/Male and female) is reported as “inactive; negative”.
In the case of CC(=O)Nc1cccc(O)c1, the mutagenic call (Test System: AMES SALMONELLA TYPHIMURIUM, Strain/Indicator: TA97, Metabolic Activation: HAMSTER, LIVER, S-9, AROCLOR 1254 (10 OR 30%), Method: PREINCUBATION) is reported as “inactive; negative”, the mutagenic call (Test System: AMES SALMONELLA TYPHIMURIUM, Strain/Indicator: TA97, Metabolic Activation: NONE, Method: PREINCUBATION) is reported as “inactive; negative” and the mutagenic call (Test System: AMES SALMONELLA TYPHIMURIUM, Strain/Indicator: TA97, Metabolic Activation: RAT, LIVER, S-9, AROCLOR 1254 (10 OR 30%), Method: PREINCUBATION) is reported as “inactive; negative”. The mutagenic call (Test System: AMES SALMONELLA TYPHIMURIUM, Strain/Indicator: TA98, Metabolic Activation: HAMSTER, LIVER, S-9, AROCLOR 1254 (10 OR 30%), Method: PREINCUBATION) was “inactive; negative”, the mutagenic call [1] was “inactive; negative” and the mutagenic call (Test System: AMES SALMONELLA TYPHIMURIUM, Strain/Indicator: TA98, Metabolic Activation: RAT, LIVER, S-9, AROCLOR 1254 (10 OR 30%), Method: PREINCUBATION) was “inactive; negative”. The mutagenic call (Test System: AMES SALMONELLA TYPHIMURIUM, Strain/Indicator: TA100, Metabolic Activation: HAMSTER, LIVER, S-9, AROCLOR 1254 (10 OR 30%), Method: PREINCUBATION) was “inactive; negative”, the mutagenic call [2] was “inactive; negative” and the mutagenic call (Test System: AMES SALMONELLA TYPHIMURIUM, Strain/Indicator: TA100, Metabolic Activation: RAT, LIVER, S-9, AROCLOR 1254 (10 OR 30%), Method: PREINCUBATION) was “inactive; negative”. The mutagenic call (Test System: AMES SALMONELLA TYPHIMURIUM, Strain/Indicator: TA1535, Metabolic Activation: HAMSTER, LIVER, S-9, AROCLOR 1254 (10 OR 30%), Method: PREINCUBATION) was “inactive; negative”, the mutagenic call (Test System: AMES SALMONELLA TYPHIMURIUM, Strain/Indicator: TA1535, Metabolic Activation: NONE, Method: PREINCUBATION) was “inactive; negative” and the mutagenic call (Test System: AMES SALMONELLA TYPHIMURIUM, Strain/Indicator: TA1535, Metabolic Activation: RAT, LIVER, S-9, AROCLOR 1254 (10 OR 30%), Method: PREINCUBATION) was “inactive; negative”.
